Source: the supplement of paper PMC11150407

What follows are test systems tested with COc1cccc2c1C(=O)c1c(O)c3c(c(O)c1C2=O)C[C@@](O)(C(C)=O)C[C@@H]3O[C@H]1C[C@H](N)[C@H](O)[C@H](C)O1 [Daunorubicine] (assay: area under dose-response viability curve (log dose) (AUC (arbitrary)); higher = less sensitive). Details: 72 h.
Experimental: (§1)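 Primary AML blasts from patients (3q26 EVI1-high and other AML) were treated for 72 h with a dose series of each drug. Viability was measured with an ATP-based CellTiter-Glo assay. The area under the curve of the log-transformed dose-response data was computed in GraphPad Prism; a lower AUC means greater sensitivity.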

In order of falling “area under dose-response viability curve” value:
1. PR#038 (EVI1 status: EVI1Low)  86
2. PR#037 (EVI1 status: EVI1Low)  83.7
3. PR#035 (EVI1 status: EVI1Low)  64.4
4. PR#036 (EVI1 status: EVI1Low)  48.2
5. PR#039 (EVI1 status: EVI1Low)  24.5

The test systems below were run with CN(Cc1cnc2nc(N)nc(N)c2n1)c1ccc(C(=O)N[C@@H](CCC(=O)O)C(=O)O)cc1 [Methotrexate] in the same assay as above. Details: 72 h.
Experimental: as §1

In order of rising “area under dose-response viability curve” value:
1. PR#035 (EVI1 status: EVI1Low)  198
2. PR#039 (EVI1 status: EVI1Low)  201
3. PR#038 (EVI1 status: EVI1Low)  209
4. PR#037 (EVI1 status: EVI1Low)  213
5. PR#036 (EVI1 status: EVI1Low)  251

The test systems below were run with CC(C)[C@H](C(=O)Nc1ccc(C(=O)NO)cc1)c1ccccc1 [AR-42] in the same assay as above. Details: 72 h.
Experimental: as §1

In order of rising “area under dose-response viability curve” value:
1. PR#039 (EVI1 status: EVI1Low)  96
2. PR#037 (EVI1 status: EVI1Low)  126
3. PR#036 (EVI1 status: EVI1Low)  130
4. PR#038 (EVI1 status: EVI1Low)  141
5. PR#035 (EVI1 status: EVI1Low)  145

What follows are test systems tested with Nc1ccccc1NC(=O)c1ccc(CNC(=O)OCc2cccnc2)cc1 [Entinostat] in the same assay as above. Details: 72 h.
Experimental: as §1

In order of rising “area under dose-response viability curve” value:
1. PR#037 (EVI1 status: EVI1Low)  106
2. PR#039 (EVI1 status: EVI1Low)  125
3. PR#038 (EVI1 status: EVI1Low)  143
4. PR#036 (EVI1 status: EVI1Low)  172
5. PR#035 (EVI1 status: EVI1Low)  175

What follows are test systems tested with CC[C@]1(O)C[C@H]2CN(CCc3c([nH]c4ccccc34)[C@@](C(=O)OC)(c3cc4c(cc3OC)N(C=O)[C@H]3[C@@](O)(C(=O)OC)[C@H](OC(C)=O)[C@]5(CC)C=CCN6CC[C@]43[C@@H]65)C2)C1 [Vincristine] in the same assay as above. Details: 72 h.
Experimental: as §1

In order of rising “area under dose-response viability curve” value:
1. PR#039 (EVI1 status: EVI1Low)  95.7
2. PR#037 (EVI1 status: EVI1Low)  113
3. PR#035 (EVI1 status: EVI1Low)  119
4. PR#036 (EVI1 status: EVI1Low)  123
5. PR#038 (EVI1 status: EVI1Low)  187

These test systems were tested with O=C(/C=C/c1cccc(S(=O)(=O)Nc2ccccc2)c1)NO [Belinostat] in the same assay as above. Details: 72 h.
Experimental: as §1

In order of rising “area under dose-response viability curve” value:
1. PR#039 (EVI1 status: EVI1Low)  124
2. PR#037 (EVI1 status: EVI1Low)  127
3. PR#036 (EVI1 status: EVI1Low)  150
4. PR#038 (EVI1 status: EVI1Low)  167
5. PR#035 (EVI1 status: EVI1Low)  168
